Patent US11103493B2, “Substituted pyridinyl compounds as indoleamine 2,3-dioxygenase (IDO) inhibitors” (Merck Sharp & Dohme Corp., priority 2017, dated 2021)
pIC50: −log10 of the molar value.

Molecular target: T1, IDO1 (Homo sapiens, UniProt P14902)
Assay: IDO1 Human Whole Blood Assay
Assay type: cell-based
Details: LPS and IFNγ 100 ng/mL, 18 h, kynurenine by LC/MS/MS
Experimental: IDO1 Human Whole Blood Assay
Compounds to be tested were serially diluted in ten 3-fold steps in DMSO starting from 10 mM. 3 μL of compound dilutions or DMSO alone were then dispensed from the dilution plate into a polypropylene 96-well assay plate containing 97 μL of RPMI medium using an Echo 555 acoustic liquid handler (Labcyte). LPS and IFNγ was prepared in RPMI medium to a 10× of final conc. (1000 ng/mL), final concentration is 100 ng/mL.
Human whole blood was drawn in sodium heparin coated tubes from healthy internal donors. 240 μL of blood was transferred to each of the wells of a v-bottom 96 well plate. 30 μL of compound was transferred from intermediate dilution plate, and incubated for 15 min. 30 μL from stimulants was then transferred to blood and mixed thoroughly. Plate was covered with breathable membrane and incubated at 37° C. for overnight (18 h).
On day 2, isotope labeled standard solutions of kunurenine and tryptophan was made in water at 10× concentration and 30 μL was added to the blood at […] concentration. The assay plates were centrifuged at 300×G for 10 min with no brake to separate plasma from red blood cells. 60 μL of plasma samples was removed without disturbing red blood cells. Plasma was diluted with RPMI in 1:1 ratio and proteins were precipitated out with two volumes of Acetonitrile. The plates were centrifuged at 4000×G for 60 min. 20 μL of supernatant was carefully transferred to a 384 well plate containing 40 μL of 0.1% formic acid in water and analyzed by LC/MS/MS.
LC/MS/MS analyses were performed using Thermo Fisher's LX4-TSQ Quantum Ultra system. This system consists of four Agilent binary high-performance liquid chromatography (HPLC) pumps and a TSQ Quantum Ultra triple quadrupole MS/MS instrument. For each sample, 5 μL were injected onto an Atlantis T3 column (2.1 mm×150 mm, 3 μm particle size) from Waters. The mobile phase gradient pumped at 0.8 mL/min was used to elute the analytes from the column at 25° C. The elution started at 0% B increasing linearly to 25% B at 6.5 min, holding at 25% for 1 min, re-equilibrating to 10 min. Mobile phase A consisted of 0.1% formic acid in water. Mobile phase B consisted of 0.1% of formic acid in acetonitrile. Data was acquired in positive mode using a HESI interface. The operational parameters for the TSQ Quantum Ultra instrument were a spray voltage of 4000 V, capillary temperature of 380° C., vaporizer temperature 400° C., shealth gas 60 arbitrary units, Aux gas 20 arbitrary units, tube lens 85 and collision gas 1.2 mTorr. SRM chromatograms of kynurenine (QI: 209.2>Q3:94.0) and internal standard (QI: 215.3>Q3:98.2) were collected for 90 sec. The peak area was integrated by Xcalibur Quan software. The ratios between the kynurenine generated in the reaction and 2D6-Kynurenine spiked-in internal standard were used to generate percentage inhibition and IC50 values. Compounds were titrated and IC50's were calculated by 4 parameter sigmoidal curve fitting formula.

T1 sequence (P14902 whole entry): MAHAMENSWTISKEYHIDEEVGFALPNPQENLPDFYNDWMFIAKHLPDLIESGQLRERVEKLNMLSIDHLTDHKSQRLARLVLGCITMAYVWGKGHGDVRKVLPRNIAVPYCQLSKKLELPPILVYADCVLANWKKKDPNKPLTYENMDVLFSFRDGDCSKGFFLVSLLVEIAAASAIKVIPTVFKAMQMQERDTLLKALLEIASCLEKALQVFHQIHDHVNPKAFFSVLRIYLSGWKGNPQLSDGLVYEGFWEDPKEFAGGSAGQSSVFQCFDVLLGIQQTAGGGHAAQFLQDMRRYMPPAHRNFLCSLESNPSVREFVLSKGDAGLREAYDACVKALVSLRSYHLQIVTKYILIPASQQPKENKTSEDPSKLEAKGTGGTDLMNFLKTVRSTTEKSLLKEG

pIC50 | SMILES
6.08 | O=C(Nc1ccc(C2(c3nc4cc(F)cc(F)c4[nH]3)CCC2)cn1)c1cccc(Cl)c1 [Ex. 17, 3-chloro-N-{5-[1-(5,7-difluoro-1H-benzimidazol-2-yl)cyclobutyl]pyridin-2-yl}benzamide]
6.30 | Cc1ccc2nc(C3(c4ccc(NC(=O)c5cccc(Cl)c5)nc4)CCC3)[nH]c2c1C [Ex. 10, 3-chloro-N-{5-[1-(6,7-dimethyl-1H-benzimidazol-2-yl)cyclobutyl]pyridin-2-yl}benzamide]
6.30 | Cc1cc(Cl)cc2nc(C3(c4ccc(NC(=O)c5cccc(Cl)c5)nc4)CCC3)[nH]c12 [Ex. 9, 3-chloro-N-{5-[1-(5-chloro-7-methyl-1H-benzimidazol-2-yl)cyclobutyl]pyridin-2-yl}benzamide]
6.06 | N#Cc1cccc(C(=O)Nc2ccc(C3(c4nc5cc(C#N)ccc5[nH]4)CCC3)cn2)c1 [Ex. 5, 3-Cyano-N-(5-(1-(5-cyano-1H-benzo[d]imidazol-2-yl)cyclobutyl)pyridin-2-yl)benzamide]

Molecular target: T1, IDO1
Assay: IDO1 Cellular Assay in HeLa Cells Stimulated with IFNγ
Assay type: cell-based
Details: IFNγ 100 ng/mL, 300 uM L-tryptophan, about 48 hours incubation, fluorescence readout, read-out: IDO1 HeLa Cell Assay, IC50
Experimental: IDO1 Cellular Assay in HeLa Cells Stimulated with IFNγ
HeLa cells were cultured in complete HeLa culture medium (90% EMEM, 10% heat-inactivated fetal bovine serum) and expanded to about 1×10^9 cells. The cells were then collected and frozen down at 1×10^7 cells/vial in 1 mL frozen medium (90% complete HeLa culture medium, 10% DMSO).
Compounds to be tested were serially diluted in ten 3-fold steps in DMSO starting from 10 mM DMSO stocks in Echo low volume plate(s).
Frozen HeLa cells were thawed and transferred into HeLa assay medium (99% complete HeLa culture medium, 1% Pen/Strep) with 20 mL medium/vial of cells. The cells were spun down at 250 g in a table top centrifuge for 5 min and suspended in same volume of HeLa assay medium. The cells were then counted and adjusted to a density of 2×10^5 cells/mL in HeLa assay medium. Sterile L-tryptophan were added to the cells with final concentration of 300 uM L-tryptophan. A small aliquot (2 mL/plate) of HeLa cells were set aside and were not treated with IFNγ, to serve as the Max-E control.
HeLa cells with and without IFNγ were dispensed to the respective wells of 384-well assay plates containing the compounds. The plates were incubated for about 48 hours at a 37° C., 5% CO2 incubator. Afterwards, 12 μL of 0.5 M methyl isonipecotate in dimethyl sulfoxide were added into each well and the plates were sealed and incubated at 37° C. without CO2 overnight. The plates were centrifuged for 1 min at 200×g. The resulting fluorescence was measured in a Spectramax plate reader (Molecular Devices) with a 400 nm excitation filter and a 510 nm emission filter.
Potencies were calculated by […] least squares fit to the four parameter logistic IC50 equation.

SMILES | pIC50
N#Cc1cccc(C(=O)Nc2ccc(C3(c4nc5cc(C#N)cnc5[nH]4)CCC3)cn2)c1 [Ex. 29, 3-cyano-N-{5-[1-(6-cyano-3H-imidazo[4,5-b]pyridin-2-yl)cyclobutyl]pyridin-2-yl}benzamide] | 7.34
N#Cc1cccc(C(=O)Nc2ccc(C(O)c3nc4cc(C(F)(F)F)cnc4[nH]3)cn2)c1 (centres unmarked) [Ex. 42, 3-Cyano-N-(5-(hydroxy(6-(trifluoromethyl)-3H-imidazo[4,5-b]pyridin-2-yl)methyl)pyridin-2-yl)benzamide] | 5.23
N#Cc1cccc(C(=O)Nc2ccc(C3(c4nc5cc(C#N)ccc5[nH]4)CCC3)cn2)c1 [Ex. 5, 3-Cyano-N-(5-(1-(5-cyano-1H-benzo[d]imidazol-2-yl)cyclobutyl)pyridin-2-yl)benzamide] | 7.90
N#Cc1cccc(C(=O)Nc2ccc(C3(c4nc5cccc(C(=O)O)c5[nH]4)CCC3)cn2)c1 [Ex. 36, 2-(1-(6-(3-Cyanobenzamido)pyridin-3-yl)cyclobutyl)-1H-benzo[d]imidazole-7-carboxylic acid] | 5.00
N#Cc1cnc2nc(C3(c4ccc(NC(=O)c5cncc(F)c5)nc4)CCC3)[nH]c2c1 [Ex. 4, N-(5-(1-(6-cyano-1H-imidazo[4,5-b]pyridin-2-yl)cyclobutyl)pyridin-2-yl)-5-fluoronicotinamide] | 6.84
N#Cc1cccc(C(=O)Nc2ccc([C@H](O)c3nc4cc(C(F)(F)F)cnc4[nH]3)cn2)c1 [Ex. 43, (S)-3-cyano-N-(5-(hydroxy(6-(trifluoromethyl)-3H-imidazo[4,5-b]pyridin-2-yl)methyl)pyridin-2-yl)benzamide] | 5.41
COC(c1ccc(NC(=O)c2cccc(C#N)c2)nc1)c1nc2cc(C(F)(F)F)cnc2[nH]1 (centres unmarked) [Ex. 39, 3-Cyano-N-(5-(methoxy(6-(trifluoromethyl)-3H-imidazo[4,5-b]pyridin-2-yl)methyl)pyridin-2-yl)benzamide] | 6.92
O=C(Nc1ccc(C2(c3nc4ccccc4n3CCO)CCC2)cn1)c1cccc(Cl)c1 [Ex. 31, 3-Chloro-N-(5-(1-(1-(2-hydroxyethyl)-1H-benzo[d]imidazol-2-yl)cyclobutyl)pyridin-2-yl)benzamide] | 6.70
O=C(Nc1ccc(C2(c3nc4c([nH]3)CCCC4)CCC2)cn1)c1cccc(Cl)c1 [Ex. 48, 3-Chloro-N-(5-(1-(4,5,6,7-tetrahydro-1H-benzo[d]imidazol-2-yl)cyclobutyl)pyridin-2-yl)benzamide] | 7.00
CO[C@@H](c1ccc(NC(=O)c2cccc(C#N)c2)nc1)c1nc2cc(C(F)(F)F)cnc2[nH]1 [Ex. 40, (S)-3-cyano-N-(5-(methoxy(6-(trifluoromethyl)-3H-imidazo[4,5-b]pyridin-2-yl)methyl)pyridin-2-yl)benzamide] | 7.02
N#Cc1cccc(C(=O)Nc2ccc([C@@H](O)c3nc4cc(C(F)(F)F)cnc4[nH]3)cn2)c1 [Ex. 44, (R)-3-cyano-N-(5-(hydroxy(6-(trifluoromethyl)-3H-imidazo[4,5-b]pyridin-2-yl)methyl)pyridin-2-yl)benzamide] | 5.21
COC(=O)c1cccc2nc(C3(c4ccc(NC(=O)c5cccc(C#N)c5)nc4)CCC3)[nH]c12 [Ex. 35, Methyl 2-(1-(6-(3-cyanobenzamido)pyridin-3-yl)cyclobutyl)-1H-benzo[d]imidazole-7-carboxylate] | 6.42
CO[C@H](c1ccc(NC(=O)c2cccc(C#N)c2)nc1)c1nc2cc(C(F)(F)F)cnc2[nH]1 [Ex. 41, (R)-3-cyano-N-(5-(methoxy(6-(trifluoromethyl)-3H-imidazo[4,5-b]pyridin-2-yl)methyl)pyridin-2-yl)benzamide] | 6.58

Continued, values first:

pIC50 | SMILES
8.31 | O=C(Nc1ccc(C2(c3nc4cc(F)cc(F)c4[nH]3)CCC2)cn1)c1cccc(Cl)c1 [Ex. 17, 3-chloro-N-{5-[1-(5,7-difluoro-1H-benzimidazol-2-yl)cyclobutyl]pyridin-2-yl}benzamide]
8.28 | Cc1ccc2nc(C3(c4ccc(NC(=O)c5cccc(Cl)c5)nc4)CCC3)[nH]c2c1C [Ex. 10, 3-chloro-N-{5-[1-(6,7-dimethyl-1H-benzimidazol-2-yl)cyclobutyl]pyridin-2-yl}benzamide]
6.88 | O=C1COc2cc3[nH]c(C4(c5ccc(NC(=O)c6cccc(Cl)c6)nc5)CCC4)nc3cc2N1 [Ex. 18, 3-chloro-N-{5-[1-(7-oxo-3,6,7,8-tetrahydroimidazo[4,5-g][1,4]benzoxazin-2-yl)cyclobutyl]pyridin-2-yl}benzamide]
8.29 | Cc1cc(Cl)cc2nc(C3(c4ccc(NC(=O)c5cccc(Cl)c5)nc4)CCC3)[nH]c12 [Ex. 9, 3-chloro-N-{5-[1-(5-chloro-7-methyl-1H-benzimidazol-2-yl)cyclobutyl]pyridin-2-yl}benzamide]
6.20 | N#Cc1cnc2[nH]c(C3(c4ccc(NC(=O)c5cccc(Cl)c5)nc4)CCC3)cc2c1 [Ex. 6, 3-Chloro-N-(5-(1-(5-cyano-1H-pyrrolo[2,3-b]pyridin-2-yl)cyclobutyl)pyridin-2-yl)benzamide]
8.25 | COc1ccc2nc(C3(c4ccc(NC(=O)c5cccc(Cl)c5)nc4)CCC3)[nH]c2c1 [Ex. 14, 3-chloro-N-{5-[1-(6-methoxy-1H-benzimidazol-2-yl)cyclobutyl]pyridin-2-yl}benzamide]
7.99 | Cc1cccc2nc(C3(c4ccc(NC(=O)c5cccc(Cl)c5)nc4)CCC3)[nH]c12 [Ex. 11, 3-chloro-N-{5-[1-(7-methyl-1H-benzimidazol-2-yl)cyclobutyl]pyridin-2-yl}benzamide]
7.85 | O=C(Nc1ccc(C2(c3nc4ccc(OC(F)(F)F)cc4[nH]3)CCC2)cn1)c1cccc(Cl)c1 [Ex. 22, 3-chloro-N-(5-{1-[6-(trifluoromethoxy)-1H-benzimidazol-2-yl]cyclobutyl}pyridin-2-yl)benzamide]
6.58 | O=C(Nc1ccc(C2(c3nc4cc(-n5cnnn5)ccc4[nH]3)CCC2)cn1)c1cccc(Cl)c1 [Ex. 20, 3-chloro-N-(5-{1-[5-(1H-tetrazol-1-yl)-1H-benzimidazol-2-yl]cyclobutyl}pyridin-2-yl)benzamide]
8.02 | Cc1cc2nc(C3(c4ccc(NC(=O)c5cccc(Cl)c5)nc4)CCC3)[nH]c2cc1C [Ex. 26, 3-chloro-N-{5-[1-(5,6-dimethyl-1H-benzimidazol-2-yl)cyclobutyl]pyridin-2-yl}benzamide]
8.00 | COc1cccc2[nH]c(C3(c4ccc(NC(=O)c5cccc(Cl)c5)nc4)CCC3)nc12 [Ex. 15, 3-chloro-N-{5-[1-(4-methoxy-1H-benzimidazol-2-yl)cyclobutyl]pyridin-2-yl}benzamide]
6.36 | CC(C)(C)c1ccc2nc(C3(c4ccc(NC(=O)c5cccc(Cl)c5)nc4)CCC3)[nH]c2c1 [Ex. 12, N-{5-[1-(6-tert-butyl-1H-benzimidazol-2-yl)cyclobutyl]pyridin-2-yl}-3-chlorobenzamide]
